Test results: article PMC7618375, “Structure and Methyl-lysine Binding Selectivity of the HUSH Complex Subunit MPP8” (Journal of molecular biology, 2024)
Non-standard residues stand in square brackets, D forms with d. Residues, ends and D or L forms follow the SMILES beside them. Lys(Me3) = C[N+](C)(C)CCCC[C@H](N)C(=O)O

Each compound was assayed against T1, MPP8 CD (chromodomain, residues 55–116) (Homo sapiens, UniProt Q99549) (assay: Isothermal titration calorimetry (ITC) of H3K9 and H3K9-like peptides titrated into MPP8 CD). Settings: 50 mM HEPES pH 7.4, 0.1 M NaCl, 0.5 mM TCEP, 25 °C, 50 μM MPP8 CD in cell, 750 μM peptide in syringe, single-site model.
T1 construct: The MPP8 CD (residues 55–116) was cloned with a tobacco etch virus (TEV) protease cleavage site; His6 (N); TEV protease cleavage site (ENLYFQG) (N); made in house; host or cells: E. coli BL21 (DE3)
T1 sequence (Q99549 55-116): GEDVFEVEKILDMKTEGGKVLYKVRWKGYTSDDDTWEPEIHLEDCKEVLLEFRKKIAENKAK
Format: binding
Protocol: H3K9 and H3K9-like peptides, unmethylated or lysine-trimethylated, were chemically synthesized (Bio Basic Inc/NBS Biologicals Ltd). Binding of MPP8 CD to H3K9 and H3K9-like peptides was analyzed in 50 mM HEPES pH 7.4, 0.1 M NaCl, 0.5 mM TCEP at 25 °C (298 K), with an AutoiTC200 calorimeter (MicroCal). The sample cell was loaded with 0.37 ml of 50 μM MPP8 CD and the titrant syringe with 750 μM peptide. 20 serial injections of […] peptide solution were performed at 3 min intervals. The stirring speed was 1,000 rpm and the reference power was maintained at 6.06 µcal s^−1. The net heat absorption or release associated with each injection was calculated by subtracting the heat associated with the injection of peptide solution to buffer. Thermodynamic parameters were extracted from a curve fit to the data to a single-site model with Origin 7.0 (MicroCal).
In the case of `CSCC[C@H](NC(=O)[C@@H](NC(=O)[C@H](CCCC[N+](C)(C)C)NC(=O)[C@H](CCCNC(=N)N)NC(=O)[C@H](C)NC(=O)[C@H](CCCNC(=N)N)NC(=O)[C@H](Cc1c[nH]cn1)NC(=O)[C@@H](NC(=O)[C@@H](N)CCCCN)C(C)C)[C@@H](C)O)C(=O)N1CCC[C@H]1C(=O)N[C@@H](CCCCN)C(=O)N[C@@H](CO)C(=O)N[C@H](C(=O)O)C(C)C` [GLP 199-211 K205me3] (H-KVHRAR[Lys(Me3)]TMPKSV-OH), the Kd is reported as 337 ± 64 nM.
`CC(C)C[C@H](N)C(=O)N[C@@H](C)C(=O)N[C@H](C(=O)N[C@@H](CCCCN)C(=O)N[C@@H](C)C(=O)N[C@@H](C)C(=O)N[C@@H](CCCNC(=N)N)C(=O)N[C@@H](CCCC[N+](C)(C)C)C(=O)N[C@@H](CO)C(=O)N[C@@H](C)C(=O)N1CCC[C@H]1C(=O)N[C@@H](C)C(=O)N[C@H](C(=O)NCC(=O)NCC(=O)N[C@H](C(=O)N[C@@H](CCCCN)C(=O)O)C(C)C)[C@@H](C)O)[C@@H](C)O` [H3.1 20-36 K27me3, reference compound] was tested, and the Kd was over 50000 nM.
Compound `CC[C@H](C)[C@H](NC(=O)CNC(=O)[C@H](Cc1c[nH]cn1)NC(=O)[C@@H](NC(=O)[C@@H](N)CO)[C@@H](C)O)C(=O)N[C@@H](C)C(=O)N[C@H](C(=O)N[C@@H](CCCC[N+](C)(C)C)C(=O)N[C@@H](CO)C(=O)N[C@H](C(=O)N[C@@H](CC(N)=O)C(=O)N[C@@H](CCSC)C(=O)N[C@@H](C)C(=O)N[C@@H](CO)C(=O)O)[C@@H](C)O)[C@@H](C)CC` [SETDB1 1171-1184 K1178me3] (H-STHGIAI[Lys(Me3)]STNMAS-OH; N-terminus and C-terminus assumed) has a Kd of over 50000 nM.
In the case of `CSCC[C@H](NC(=O)[C@@H](NC(=O)[C@H](CCCC[N+](C)(C)C)NC(=O)[C@H](CCCNC(=N)N)NC(=O)[C@H](C)NC(=O)[C@H](CCCCN)NC(=O)[C@H](Cc1ccccc1)NC(=O)[C@@H](NC(=O)[C@@H](N)CCCCN)C(C)C)[C@@H](C)O)C(=O)N[C@@H](CCCNC(=N)N)C(=O)N[C@H](C(=O)N[C@@H](CO)C(=O)O)C(C)C` [ATF7IP 10-21 K16me3] (H-KVFKAR[Lys(Me3)]TMRVS-OH), the Kd is reported as 193 ± 31 nM.
`CC[C@H](C)[C@H](NC(=O)CNC(=O)[C@H](Cc1c[nH]cn1)NC(=O)[C@@H](NC(=O)[C@H](CO)NC(=O)[C@H](CCCC[N+](C)(C)C)NC(=O)[C@H](CC(C)C)NC(=O)[C@H](C)NC(=O)[C@H](Cc1ccccc1)NC(=O)CNC(=O)[C@@H](N)CCCNC(=N)N)[C@@H](C)O)C(=O)O` [SETDB1 1165-1175 K1170me3] (H-RGFAL[Lys(Me3)]STHGI-OH) gave a Kd of 1550 nM.
In the case of `CSCC[C@H](NC(=O)[C@@H](NC(=O)[C@H](CCCC[N+](C)(C)C)NC(=O)[C@H](CCCNC(=N)N)NC(=O)[C@H](C)NC(=O)[C@H](CCCNC(=N)N)NC(=O)[C@H](Cc1c[nH]cn1)NC(=O)[C@@H](NC(=O)[C@@H](N)CCCCN)C(C)C)[C@@H](C)O)C(=O)N[C@@H](CO)C(=O)N[C@@H](CCCCN)C(=O)N1CCC[C@H]1C(=O)O` [G9a 179-190 K185me3] (H-KVHRAR[Lys(Me3)]TMSKP-OH), the Kd is reported as 1310 nM.
`C[C@H](NC(=O)[C@H](CCCCN)NC(=O)CNC(=O)CNC(=O)[C@@H](NC(=O)[C@H](CO)NC(=O)[C@H](CCCC[N+](C)(C)C)NC(=O)[C@H](CCCNC(=N)N)NC(=O)[C@H](C)NC(=O)[C@@H](NC(=O)[C@H](CCC(N)=O)NC(=O)[C@@H](N)CCCCN)[C@@H](C)O)[C@@H](C)O)C(=O)O` [H3.1 4-15 K9me3, reference compound] gave a Kd of 769 ± 65 nM.

Same assay, conditions: Figure 4B, 50 mM HEPES pH 7.4, 0.1 M NaCl, 0.5 mM TCEP, 25 °C, single-site model
In the case of `CC[C@H](C)[C@H](NC(=O)CNC(=O)[C@H](Cc1c[nH]cn1)NC(=O)[C@@H](NC(=O)[C@@H](N)CO)[C@@H](C)O)C(=O)N[C@@H](C)C(=O)N[C@H](C(=O)N[C@@H](CCCC[N+](C)(C)C)C(=O)N[C@@H](CO)C(=O)N[C@H](C(=O)N[C@@H](CC(N)=O)C(=O)N[C@@H](CCSC)C(=O)N[C@@H](C)C(=O)N[C@@H](CO)C(=O)O)[C@@H](C)O)[C@@H](C)CC` [SETDB1 1171-1184 K1178me3] (H-STHGIAI[Lys(Me3)]STNMAS-OH; N-terminus and C-terminus assumed), the Kd is reported as over 80000 nM.
